# Measurements reported in patent US11306081B2, “Phenylacetamides as inhibitors of rock” (BRISTOL-MYERS SQUIBB COMPANY, priority 2017, dated 2022).
# Molecular target: ROCK2 (Homo sapiens (Human), UniProt O75116)
# Test: ROCK assay (LABCHIP 3000 peptide phosphorylation assay)
# Assay type: biochemical
# Details: 5 μM ATP, 1.5 μM peptide substrate, dose-response
# Description: The effectiveness of compounds of the present invention as ROCK inhibitors can be determined in a 30 μL assay containing 20 mM HEPES, pH 7.5, 20 mM MgCl2, 0.015% Brij-35, 4 mM DTT, 5 μM ATP and 1.5 μM peptide substrate (FITC-AHA-AKRRRLSSLRA-OH) (SEQ ID No. 1). Compounds were dissolved in DMSO so that the final concentration of DMSO was <2%, and the reaction was initiated with Rho kinase variants. After incubation, the reaction was terminated by the addition of EDTA and the phosphorylated and non-phosphorylated peptides separated using a LABCHIP® 3000 Reader (Caliper Life Sciences). […] Compounds were tested in dose-response format, and the inhibition of kinase activity was calculated at each concentration of compound. The inhibition data were fit using a curve-fitting program to determine the IC50; i.e., the concentration of compound required to inhibit 50% of kinase activity.
# Chain of ROCK2 (O75116 whole entry, species assumed): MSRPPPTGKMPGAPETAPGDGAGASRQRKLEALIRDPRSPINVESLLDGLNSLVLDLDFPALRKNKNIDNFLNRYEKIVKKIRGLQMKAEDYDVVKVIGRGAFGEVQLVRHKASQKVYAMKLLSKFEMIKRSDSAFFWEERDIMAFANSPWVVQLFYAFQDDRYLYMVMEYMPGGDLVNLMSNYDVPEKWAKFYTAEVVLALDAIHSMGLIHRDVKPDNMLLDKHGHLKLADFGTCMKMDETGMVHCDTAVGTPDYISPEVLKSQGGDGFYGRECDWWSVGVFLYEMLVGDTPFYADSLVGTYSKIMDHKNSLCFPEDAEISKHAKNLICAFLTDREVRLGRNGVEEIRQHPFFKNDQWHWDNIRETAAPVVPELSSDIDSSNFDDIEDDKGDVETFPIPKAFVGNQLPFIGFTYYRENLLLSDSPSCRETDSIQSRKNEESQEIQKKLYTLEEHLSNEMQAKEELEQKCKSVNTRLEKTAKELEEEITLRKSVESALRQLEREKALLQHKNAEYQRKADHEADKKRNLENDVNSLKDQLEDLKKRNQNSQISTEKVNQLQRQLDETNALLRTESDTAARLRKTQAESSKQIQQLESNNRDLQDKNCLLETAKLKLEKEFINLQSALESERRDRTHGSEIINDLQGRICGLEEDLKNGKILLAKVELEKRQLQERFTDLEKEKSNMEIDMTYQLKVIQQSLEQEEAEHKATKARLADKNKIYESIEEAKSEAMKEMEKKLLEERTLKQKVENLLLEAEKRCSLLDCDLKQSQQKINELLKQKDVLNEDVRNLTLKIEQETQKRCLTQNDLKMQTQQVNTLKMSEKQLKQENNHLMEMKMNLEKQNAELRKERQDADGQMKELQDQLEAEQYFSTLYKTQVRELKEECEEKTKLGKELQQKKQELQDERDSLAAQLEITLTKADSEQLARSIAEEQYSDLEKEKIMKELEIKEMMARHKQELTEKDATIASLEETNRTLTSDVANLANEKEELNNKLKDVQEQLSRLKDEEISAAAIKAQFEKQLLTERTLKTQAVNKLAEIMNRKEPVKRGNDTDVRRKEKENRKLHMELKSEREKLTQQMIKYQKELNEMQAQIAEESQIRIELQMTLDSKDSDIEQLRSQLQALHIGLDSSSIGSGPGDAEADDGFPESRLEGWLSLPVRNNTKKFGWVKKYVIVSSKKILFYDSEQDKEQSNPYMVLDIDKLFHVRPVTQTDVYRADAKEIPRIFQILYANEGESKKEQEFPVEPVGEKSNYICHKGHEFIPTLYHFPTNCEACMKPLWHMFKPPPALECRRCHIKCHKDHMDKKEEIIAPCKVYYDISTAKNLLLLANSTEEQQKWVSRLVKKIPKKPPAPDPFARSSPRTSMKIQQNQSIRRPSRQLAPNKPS
row,SMILES,IC50
1,"NC(=O)c1cccnc1Oc1ccc(CC(=O)Nc2nc3ccccc3o2)cc1 [Example 054, 2-(4-(2-(benzo[d]oxazol-2-ylamino)-2-oxoethyl)phenoxy) nicotinamide]",0.364 µM
2,"Cc1nnc(NC(=O)Cc2ccc(Oc3ncccc3C(N)=O)cc2)s1 [Example 055, 2-(4-(2-((5-methyl-1,3,4-thiadiazol-2-yl)amino)-2-oxoethyl)phenoxy) nicotinamide]",1.11 µM
3,"COc1cc(C#N)c2c(c1)CCN2C(=O)Cc1ccc(Oc2ncccc2C(N)=O)cc1 [Example 056, 2-(4-(2-(7-cyano-5-methoxyindolin-1-yl)-2-oxoethyl)phenoxy) nicotinamide]",1.09 µM
4,"NC(=O)c1cccnc1Oc1ccc(CC(=O)Nc2nnc(-c3ccccc3)s2)cc1 [Example 058, 2-(4-(2-oxo-2-((5-phenyl-1,3,4-thiadiazol-2-yl)amino)ethyl)phe-noxy)nicotinamide]",0.419 µM
5,"NC(=O)c1cccnc1Oc1ccc(CC(=O)Nc2nc(-c3cccc4oc(=O)ccc34)cs2)cc1 [Example 061, 2-(4-(2-oxo-2-((4-(2-oxo-2H-chromen-5-yl)thiazol-2-yl)amino)ethyl)phe-noxy)nicotinamide]",0.506 µM
6,NC(=O)c1cccnc1Oc1ccc(CC(=O)Nc2nc(-c3cccc(OC(F)(F)F)c3)cs2)cc1 [Example 062],0.863 µM
7,"N#Cc1cccc(-c2csc(NC(=O)Cc3ccc(Oc4ncccc4C(N)=O)cc3)n2)c1 [Example 063, 2-(4-(2-((4-(3-cyanophenyl)thia-zol-2-yl)amino)-2-oxoethyl)phenoxy) nicotinamide]",0.339 µM
8,"NC(=O)c1cccnc1Oc1ccc(CC(=O)Nc2nc(-c3cccc(F)c3)cs2)cc1 [Example 064, 2-(4-(2-((4-(3-fluorophenyl)thia-zol-2-yl)amino)-2-oxoethyl)phenoxy) nicotinamide]",0.423 µM
9,"NC(=O)c1ccc2nc(NC(=O)Cc3ccc(Oc4ncccc4C(N)=O)cc3)sc2c1 [Example 066, 2-(2-(4-((3-carbamoylpyridin-2-yl)oxy)phenyl)acet-amido)benzo[d]thi-azole-6-carboxamide]",0.83 µM
10,"Cc1ccc2[nH]c(NC(=O)Cc3ccc(Oc4ncccc4C(N)=O)cc3)nc2c1 [Example 068, 2-(4-(2-((5-methyl-1H-benzo[d]imidazol-2-yl)amino)-2-oxoethyl)phenoxy) nicotinamide]",0.6 µM
11,"CCCS(=O)(=O)c1ccc2[nH]c(NC(=O)Cc3ccc(Oc4ncccc4C(N)=O)cc3)nc2c1 [Example 069, 2-(4-(2-oxo-2-((5-(propylsulfonyl)-1H-benzo[d]imidazol-2-yl)amino)ethyl)phe-noxy)nicotinamide]",0.558 µM
12,"N#Cc1ccc2[nH]c(NC(=O)Cc3ccc(Oc4ncccc4C(N)=O)cc3)nc2c1 [Example 071, 2-(4-(2-((5-cyano-1H-benzo[d]imidazol-2-yl)amino)-2-oxoethyl)phenoxy) nicotinamide]",0.621 µM
13,"NC(=O)c1cccnc1Oc1ccc(CC(=O)Nc2nc3cccc(Cl)c3[nH]2)cc1 [Example 073, 2-(4-(2-((7-chloro-1H-benzo[d]imidazol-2-yl)amino)-2-oxoethyl)phenoxy) nicotinamide]",0.244 µM
14,"COC(=O)c1ccc2c(c1)nc(NC(=O)Cc1ccc(Oc3ncccc3C(N)=O)cc1)n2C [Example 074, methyl 2-(2-(4-((3-carbamoylpyridin-2-yl)oxy)phenyl)acet-amido)-1-methyl-1H-benzo[d]imidazole-5-carboxylate]",1.1 µM
15,"Cn1nc(NC(=O)Cc2ccc(Oc3ncccc3C(N)=O)cc2)c2ccccc21 [Example 075, 2-(4-(2-((1-methyl-1H-indazol-3-yl)amino)-2-oxoethyl)phenoxy) nicotinamide]",0.534 µM
16,"CS(=O)(=O)c1ccc2nc(NC(=O)Cc3ccc(Oc4ncccc4C(N)=O)cc3)sc2c1 [Example 076, 2-(4-(2-((6-(methylsulfonyl)benzo[d]thiazol-2-yl)amino)-2-oxoethyl)phenoxy) nicotinamide]",0.332 µM

# These reach a lower IC50. Values come first.
row,IC50,SMILES
1,0.175 µM,"Cc1ccc(-c2nc(NC(=O)Cc3ccc(Oc4ncccc4C(N)=O)cc3)sc2C)cc1Cl [Example 050, 2-(4-(2-((4-(3-chloro-4-methylphenyl)-5-methylthiazol-2-yl)amino)-2-oxoethyl)phenoxy) nicotinamide]"
2,0.145 µM,"COc1ccc(-c2csc(NC(=O)Cc3ccc(Oc4ncccc4C(N)=O)cc3)n2)cc1OC [Example 051, 2-(4-(2-((4-(3,4-dimethoxyphenyl)thiazol-2-yl)amino)-2-oxoethyl)phenoxy) nicotinamide]"
3,0.177 µM,"NC(=O)c1cccnc1Oc1ccc(CC(=O)Nc2nc(-c3ccccc3)cs2)cc1 [Example 052, 2-(4-(2-oxo-2-((4-phenylthiazol-2-yl)amino)ethyl)phe-noxy)nicotinamide]"
4,0.021 µM,"COc1ccc2c(c1)CCc1sc(NC(=O)Cc3ccc(Oc4ncccc4C(N)=O)cc3)nc1-2 [Example 053, 2-(4-(2-((7-methoxy-4,5-dihydronaphtho[1,2-d]thiazol-2-yl)amino)-2-oxoethyl)phenoxy) nicotinamide]"
5,0.186 µM,"NC(=O)c1cccnc1Oc1ccc(CC(=O)Nc2nc(-c3ccc4c(c3)OCCO4)cs2)cc1 [Example 057, 2-(4-(2-((4-(2,3-dihydrobenzo[b][1, 4]dioxin-6-yl)thiazol-2-yl)amino)-2-oxoethyl)phenoxy) nicotinamide]"
6,0.098 µM,"NC(=O)c1cccnc1Oc1ccc(CC(=O)N2CCc3cc(OCc4ccccc4)ccc32)cc1 [Example 059, 2-(4-(2-(5-(benzyloxy)indolin-1-yl)-2-oxoethyl)phenoxy) nicotinamide]"
7,0.109 µM,"COC(=O)c1ccc2sc(NC(=O)Cc3ccc(Oc4ncccc4C(N)=O)cc3)nc2c1 [Example 065, methyl 2-(2-(4-((3-carbamoylpyridin-2-yl)oxy)phenyl)acet-amido)benzo[d]thi-azole-5-carboxylate]"
8,0.089 µM,"COc1ccc2nc(NC(=O)Cc3ccc(Oc4ncccc4C(N)=O)cc3)sc2c1 [Example 067, 2-(4-(2-((6-methoxybenzo[d]thiazol-2-yl)amino)-2-oxoethyl)phenoxy) nicotinamide]"
9,0.057 µM,"COC(=O)c1ccc2nc(NC(=O)Cc3ccc(Oc4ncccc4C(N)=O)cc3)sc2c1 [Example 070, methyl 2-(2-(4-((3-carbamoylpyridin-2-yl)oxy)phenyl)acet-amido)benzo[d]thi-azole-6-carboxylate]"
10,0.147 µM,"NC(=O)c1cccnc1Oc1ccc(CC(=O)Nc2nc3cc(C(=O)c4ccccc4)ccc3[nH]2)cc1 [Example 072, 2-(4-(2-((5-benzoyl-1H-benzo[d]imidazol-2-yl)amino)-2-oxoethyl)phenoxy) nicotinamide]"
11,0.042 µM,"Cc1cccc(Nc2ncnc3ccc(NC(=O)Cc4ccc(Oc5ncccc5C(N)=O)cc4)cc23)c1 [Example 077, 2-(4-(2-oxo-2-((4-(m-tolylamino)quinaz-olin-6-yl)amino)ethyl)phe-noxy)nicotinamide]"
12,0.096 µM,"Cc1sc(NC(=O)Cc2ccc(Oc3ncccc3C(N)=O)cc2)nc1-c1ccc(F)cc1 [Example 078, 2-(4-(2-((4-(4-fluorophenyl)-5-methylthiazol-2-yl)amino)-2-oxoethyl)phenoxy) nicotinamide]"
13,0.181 µM,"NC(=O)c1cccnc1Oc1ccc(CC(=O)Nc2nc3ccccc3n2Cc2ccccc2)cc1Cl [Example 079, 2-(4-(2-((1-benzyl-1H-benzo[d]imidazol-2-yl)amino)-2-oxoethyl)-2-chlorophenoxy)nico-tinamide]"
